Experimental data as given in patent US20240400529A1, “COMPOSITIONS AND METHODS FOR THE PREVENTION AND/OR TREATMENT OF MITOCHONDRIAL DISEASE, INCLUDING FRIEDREICH'S ATAXIA” (Stealth BioTherapeutics Inc., priority 2019, published 2024).
“Also recorded” adds a separate entry of the source.

Columns and labels:
[1] = test system: frataxin deficient fibroblasts (Friedreich's ataxia patient, GM03665); format: cell-based
[2] = test system: HepG2 human hepatocarcinoma cells; assay: Rotenone ATP Assay (Complex I by-pass); format: cell-based; conditions: for Complex I by-pass activity / restoring ATP production, in words: summary statements also cover the Oxygraph assay
Method: This assay has been adapted from Haefeli R H, Erb M, Gemperli A C, Robay D, Courdier Fruh I, et al. (2011) NQO1-Dependent Redox Cycling of Idebenone: Effects on Cellular Redox Potential and Energy Levels. PLOS ONE 6 (3): e17963. HepG2 human hepatocarcinoma cells were co-incubated with the electron transport chain Complex I toxin rotenone+/−compounds of interest and the corresponding effect on ATP synthesis was measured with a bioluminescent substrate.
In brief, HepG2 cells were plated at 25,000 cells per well in low glucose (1 gram/Liter) DMEM medium+10% fetal calf serum and incubated for 24 hours. The following day, the media was decanted and subsequently replaced with glucose free/serum free DMEM which has been supplemented with 50 micromolar rotenone and compound of interest. Serial dilutions of compound were prepared in 3× dilutions beginning at 25 micromolar. The cells were incubated for 60 minutes in a humidified tissue culture incubator. Following incubation, ATP levels were quantified via bioluminescent assay (Promega […] Glo Assay kit) and readings were captured on a standard microplate reader.
ATP bioluminescence is plotted versus the log of compound of interest and data were used to generate EC50 values. Curve fitting was performed using a sigmoidal dose response curve fit function (GraphPad Prism software).
Robustness of curve fit was assessed as a quality control measure, with an R squared value of at least 0.80 being required for a successful curve fit. Compounds of interest showing an increase in ATP bioluminescence relative to vehicle control were verified in an independent biological replicate of n=3 technical replicates per dose.
This assay is a direct measure of the ability of compounds of interest to restore ATP production under conditions of inhibition of Complex I of the mitochondrial electron transport chain. As the majority of ATP produced via the electron transport chain is thought to derive from Complex I activity, significant impairment in Complex I function has dire biological consequences. Of note, Complex I mutations are thought to drive pathophysiology in multiple mitochondrial diseases, including Leigh syndrome and Leber's Hereditary Optic Neuropathy (LHON), while diminished Complex I activity and the resultant attenuation of ATP production has been shown in neurodegenerative diseases, including Friedreich's Ataxia, Parkinson's Disease and Huntington's Disease.

[3] = test system: GM03665 cells (fibroblasts from a subject with Friedreich's ataxia); assay: RSL3 Toxicity Assay (RSL3 Assay); format: cell-based, human
Method: In brief, GM03665 cells (Coriell Institute) were seeded in 96-well plates (Sarstedt) in DMEM cell culture media containing 10% Fetal Bovine serum and 1% Penicillin-Streptomycin (Pen-Strep) antibiotic mix at the amount of 2×10^4/mL (100 μL or 2×10^3 cells per well). Cells were left to rest overnight at 37° C. in a humidified atmosphere with 5% CO2 to allow attachment of the cells to the culture plate. Test compounds were prepared as DMSO stocks (10 mM) and were serially diluted in cell culture media to obtain 2× working solutions. Cell media was discarded and replaced by 50 μL of test compound solutions or cell media with vehicle for control wells. Within 15 minutes, 2× working solution (4 μM) of 1S,3R-RSL3 (CAS #1219810-16-8, Sigma-Aldrich) (diluted from 5 mM DMSO stock in cell culture media) was added. Final reaction volume was 100 μL and final DMSO concentration in reaction was kept below 0.2% (v/v) and equal in all wells. Final RSL3 concentration was 2 μM and test compound final concentrations in reaction were up to 1000 nM. After 24 hours of incubation cell viability was assessed by MTT test. MTT (Sigma-Aldrich) solution 1 mg/mL in 1×PBS (pH=7,4) was prepared 1 hour before the assay and filtered through Filtropur S 0.2 filters (Sarstedt). Cell media with test compounds was discarded and 100 μL of MTT solution was added to cells. The plates were incubated for 2 hours at +37° C. Thereafter, the MTT solution was removed and 100 μL of isopropanol was added to dissolve sediment. Absorption at 570 and 650 nm was measured using Hidex Sense microplate reader.

[4] = test system: intact HepG2 cells; assay: Rotenone Oxygraph Assay (high-resolution respirometry); format: cell-based, human
Method: The Oxygraph-2k (O2k, OROBOROS INSTRUMENTS, Austria) was used for measurements of respiration of intact cells. The respirometry was performed in Dulbecco's Modified Eagle Medium (DMEM) high glucose without supplements. All experiments were performed at 37° C.
HepG2 cells (ATCC collection code HB-8065™) were cultured in 10 cm^2 culture dishes in DMEM high glucose medium supplemented with 10% fetal bovine serum (FBS) and 100 units/mL penicillin and 100 μg/mL streptomycin until approximately 90% confluence was reached. Immediately prior to performing the respirometric assay, the cells were washed with media without FBS, trypsinized and resuspended in DMEM high glucose without FBS.
The final concentration of intact cells in the O2k-chamber was 0.5.10^6/mL. After stabilization of respiration, the Complex I inhibitor, rotenone, at 1 μM final concentration was added to inhibit electron flux via Complex I. Then, compound to be tested was added at 10 μM final concentration, and the change in respiration rate of intact cells was monitored.

[5] = test system: Nrf-2 responsive genes; assay: Nrf-2 Activation Assay (Nrf-2 Assay); format: cell-based, human; conditions: FIG. 7; 1 μM, 24 hours
Method: This assay was developed internally and was designed to determine if the novel test compounds disclosed herein active Nrf-2 and thereby promote resolution of inflammation by the mechanism believed to be responsible for the activity of omaveloxolone.
Briefly, GM03665 Eriedreich Ataxia patient fibroblasts were grown in 12 Well Plates (TC Cell+F) (Sarstedt, Nümbrecht Germany), at a density of 12×10^4 cells/per well in DMEM/F12 (Gibco, ThermoFisher Scientific, Waltham, MA, USA) cell media supplemented with 10% FBS and 1% Pen/Strep. Cells were left to rest overnight at 37° C. in a humidified atmosphere with 5% CO2 to allow attachment of the cells to the culture plate. Before continuing assay visual inspection of each well was done by light microscopy to detect any possible bacterial and fungal contamination. […] After incubation, cell media was removed and total RNA from the cells was isolated using E.Z.N.A.® Total RNA Kit I (Omega Bio-tek, Norcross, Georgia, USA) spin columns, and first-strand cDNA synthesis was carried out using a High Capacity cDNA Reverse Transcription Kit (Applied Biosystems™, Foster City, CA) following the manufacturer's instructions. qPCR analysis of gene expression was performed by mixing SYBR® Green Master Mix (Applied Biosystems™) with synthesized cDNA and forward and reverse primers. […] (60 cycles), and 95° C. for 60 seconds, followed by melt curve analysis at 72-95° C., 0.3° C./sec. The relative expression levels for each gene were calculated with the ΔΔCt method and normalized to the expression of REEP5 and SNRPD3 genes.

[6] = target: lipoxygenase-15 enzyme (Glycine max (Soybean) (Glycine hispida), UniProt P08170); assay: Lipoxygenase-15 Assay (LO-15 Assay); format: biochemical; conditions: reduced forms tested

Structure (SMILES) | protection from BSO induced cell death / ferroptosis, in words [1] | Complex I by-pass activity / restoring ATP production, in words [2] | activity in the RSL3 Assay, in words [3] | Rotenone Oxygraph Assay % Increase (Table 7) ([4]; 1 μM rotenone, 10 μM compound) | activation of Nrf-2 responsive genes / pathway, in words [5] | lipoxygenase-15 inhibition, in words [6] | Rotenone ATP Assay EC50, nM (Table 7) ([2]; HepG2, 50 micromolar rotenone, 60 minutes) | RSL3 Assay EC50, nM (Table 7) ([3]; 2 μM RSL3, 24 hours, MTT) | Mean EC50, RSL3 Assay (Table 3) ([3]; 2 μM RSL3, 24 hours, MTT, mean of at least three measurements, unit from Table 7) | activity in the Rotenone Oxygraph Assay, in words [4] | Percent increase in ATP (Table 4, Rotenone Oxygraph Assay) ([4]; 1 μM rotenone, 10 μM compound, change in respiration rate of intact cells)
CC(C)=CCC/C(C)=C/CC/C(C)=C/CC[C@@](C)(O)CCC1=C(C)C(=O)C(C)=C(C)C1=O (stereo in doubt) [Vatiquinone, reference compound] | ability to circumvent BSO induced cell death | not | active |  |  |  |  |  |  |  | 
Cc1c(C)c2c(c(C)c1O)CC[C@@](C)(CCC=C(F)F)O2 [Compound 67, (R)-2-(4,4-difluorobut-3-en-1-yl)-2,5,7,8-tetramethylchroman-6-ol] | possess both activities | possess both activities |  |  |  |  |  |  |  |  | 
CC1=C(C)C(=O)C(CC[C@](C)(O)CC/C=C(\C)CC/C=C(\C)CCC=C2COC2)=C(C)C1=O [Compound E, 2-((R,6E,10E)-3-hydroxy-3,7,11-trimethyl-14-(oxetan-3-ylidene)tetradeca-6,10-dien-1-yl)-3,5,6-trimethylcyclohexa-2,5-diene-1,4-dione] | possess both activities; also recorded: able to prevent ferroptotic cell death; also recorded: active | possess both activities | active; also recorded: able to prevent ferroptotic cell death | 37.9 +/− 10.7% | do not activate | outside of the range of the assay |  |  |  |  | 
CC1=C(C)C(=O)C(CC[C@](C)(O)CC/C=C(\C)CCC=C(F)F)=C(C)C1=O [Compound H, (R,E)-2-(11,11-difluoro-3-hydroxy-3,7-dimethylundeca-6,10-dien-1-yl)-3,5,6-trimethylcyclohexa-2,5-diene-1,4-dione] | able to prevent ferroptotic cell death; also recorded: active |  | active; also recorded: able to prevent ferroptotic cell death | 54.3 +/− 13% | do not activate | effective inhibitors |  |  |  |  | 
CC1=C(C)C(=O)C(CC[C@@](C)(O)CC/C=C(\C)CCC=C(F)F)=C(C)C1=O [Compound L, (S,E)-2-(11,11-difluoro-3-hydroxy-3,7-dimethylundeca-6,10-dien-1-yl)-3,5,6-trimethylcyclohexa-2,5-diene-1,4-dione] | possess both activities; also recorded: able to prevent ferroptotic cell death; also recorded: active | possess both activities | active; also recorded: able to prevent ferroptotic cell death | 58.6 +/− 15.5% | do not activate | effective inhibitors |  |  |  |  | 
COC1=C(OC)C(=O)C(CCCCCCCCCCO)=C(C)C1=O [Idebenone, reference compound] | very weakly active/borderline inactive | ability to restore ATP production when Complex I is inhibited |  | 70.2 +/− 15% |  |  |  |  |  |  | 
CC1(C)CC[C@]2(NC(=O)C(C)(F)F)CC[C@]3(C)[C@H](C(=O)C=C4[C@@]5(C)C=C(C#N)C(=O)C(C)(C)[C@@H]5CC[C@]43C)[C@@H]2C1 [Omaveloxolone, reference compound] | ability to circumvent BSO induced cell death; also recorded: displayed anti-ferroptotic activity | not | completely inactive | Inactive | positive and does |  | Inactive | Inactive | Inactive | inactive | Inactive
